Results reported in PMC10878397, “Development of Potent Dual BET/HDAC Inhibitors via Pharmacophore Merging and Structure-Guided Optimization” (ACS Chemical Biology, 2024).

Columns and labels:
[1] = test system: HCC2429 cells; assay: CellTiter-Glo cell viability assay; type: cell-based; conditions: Homo sapiens, HCC2429, 72 h; treatment for 3 days
Method: (§1) PDAC cell line PaTu8988T was obtained from ATCC and cultured in Dulbecco’s modified Eagle’s medium (DMEM) containing 10% FBS, 25 mM glucose, […], 1 mM sodium pyruvate, and 1% penicillin–streptomycin. Nut midline carcinoma cell line HCC2429 was kindly provided by Lead Discovery Center GmbH (Dortmund, Germany) and was cultured in RPMI1640 medium containing 10% FBS, 2 mM L-glutamine, and 1% penicillin–streptomycin. Cell line PaTu8988T was authenticated using the Multiplex human Cell line Authentication Test (MCA) by Multiplexion GmbH, and cell line HCC2429 was authenticated using short tandem repeat (STR) profiling.
(§2) The assays were performed using Promega’s CellTiter-Glo Luminescent Cell Viability Assay kit (Cat. #G7571). First, compounds dissolved in DMSO were printed in 96-well plates (Corning) by using a Tecan D300e digital dispenser. Then, cells were seeded into the compound-printed plates using a Thermo Multidrop reagent dispenser. 72 h later, one volume of diluted CellTiter-Glo reagent (1:4 dilution with PBS) was added to individual wells by using the Thermo Multidrop reagent dispenser again. Plates were shaken for 2 min and incubated for 10 min in the dark. Luminescent signals were read by using a Tecan Spark Multimode Microplate Reader. The values were normalized to the DMSO control wells and presented as a percentage of cell viability. Dose–response curves were drawn with GraphPad Prism 8.

[2] = test system: PaTu8988T cells; assay: CellTiter-Glo cell viability assay; type: cell-based; conditions: Homo sapiens, PaTu 8988t, 72 h; treatment for 3 days
Method: as §1, §2

[3] = biological target: T1, TAF1 (2) (Homo sapiens, UniProt P21675); assay: DSF bromodomain selectivity panel; type: binding; conditions: 10 μM compound
T1 construct: TAF1 (2); purchased in-house (SGC Frankfurt recombinant bromodomain DSF panel)
T1 sequence (P21675 1522-1656 limits assumed): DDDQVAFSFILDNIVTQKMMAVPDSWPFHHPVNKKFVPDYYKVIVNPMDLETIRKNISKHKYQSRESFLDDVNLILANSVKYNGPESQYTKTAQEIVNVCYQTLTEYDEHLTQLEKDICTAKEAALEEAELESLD
Method: (§3) The effects of inhibitor binding on the apparent melting temperature of recombinant bromodomains were determined by DSF in a 96-well plate (Starlab) at a protein concentration of 2 μM with 10 μΜ compound in buffer containing 25 mM HEPES, pH 7.5, 150 mM NaCl, and 0.5 mM TCEP. […] Protein unfolding profiles were recorded using an MX3005P real-time qPCR instrument (Agilent; excitation/emission filters = 492/610 nm) while increasing the temperature from 25 to 95 °C at a heating rate of 3 °C/min. Tm values were calculated after fitting the fluorescence curves to the Boltzmann equation. Differences in melting temperature upon compound binding are given as ΔTm = Tm (protein with inhibitor) – Tm (protein with DMSO control). Measurements were performed in triplicates.

[4] = biological target: T2, BAZ2B (Homo sapiens, UniProt Q9UIF8); assay: DSF bromodomain selectivity panel; type: binding; conditions: 10 μM compound
T2 construct: purchased in-house (SGC Frankfurt recombinant bromodomain DSF panel)
Method: as §3

[5] = biological target: T3, BRPF3 (Homo sapiens, UniProt Q9ULD4); assay: DSF bromodomain selectivity panel; type: binding; conditions: 10 μM compound
T3 construct: purchased in-house (SGC Frankfurt recombinant bromodomain DSF panel)
Method: as §3

[6] = biological target: T4, TRIM33B (Homo sapiens, UniProt Q9UPN9); assay: DSF bromodomain selectivity panel; type: binding; conditions: 10 μM compound, construct containing tandem PHD-BD
T4 construct: purchased in-house (SGC Frankfurt recombinant bromodomain DSF panel)
Method: as §3

[7] = biological target: T5, PB1A(6) (Homo sapiens, UniProt Q86U86); assay: DSF bromodomain selectivity panel; type: binding; conditions: 10 μM compound
T5 construct: PB1A(6); purchased in-house (SGC Frankfurt recombinant bromodomain DSF panel)
T5 sequence (Q86U86 773-914 limits assumed): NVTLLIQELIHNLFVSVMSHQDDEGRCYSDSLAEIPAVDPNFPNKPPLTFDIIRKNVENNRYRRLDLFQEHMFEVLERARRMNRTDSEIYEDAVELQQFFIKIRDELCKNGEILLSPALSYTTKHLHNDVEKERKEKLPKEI
Method: as §3

[8] = biological target: T6, TRIM28 (Homo sapiens, UniProt Q13263); assay: DSF bromodomain selectivity panel; type: binding; conditions: 10 μM compound, construct containing tandem PHD-BD
T6 construct: purchased in-house (SGC Frankfurt recombinant bromodomain DSF panel)
T6 sequence (Q13263 whole entry): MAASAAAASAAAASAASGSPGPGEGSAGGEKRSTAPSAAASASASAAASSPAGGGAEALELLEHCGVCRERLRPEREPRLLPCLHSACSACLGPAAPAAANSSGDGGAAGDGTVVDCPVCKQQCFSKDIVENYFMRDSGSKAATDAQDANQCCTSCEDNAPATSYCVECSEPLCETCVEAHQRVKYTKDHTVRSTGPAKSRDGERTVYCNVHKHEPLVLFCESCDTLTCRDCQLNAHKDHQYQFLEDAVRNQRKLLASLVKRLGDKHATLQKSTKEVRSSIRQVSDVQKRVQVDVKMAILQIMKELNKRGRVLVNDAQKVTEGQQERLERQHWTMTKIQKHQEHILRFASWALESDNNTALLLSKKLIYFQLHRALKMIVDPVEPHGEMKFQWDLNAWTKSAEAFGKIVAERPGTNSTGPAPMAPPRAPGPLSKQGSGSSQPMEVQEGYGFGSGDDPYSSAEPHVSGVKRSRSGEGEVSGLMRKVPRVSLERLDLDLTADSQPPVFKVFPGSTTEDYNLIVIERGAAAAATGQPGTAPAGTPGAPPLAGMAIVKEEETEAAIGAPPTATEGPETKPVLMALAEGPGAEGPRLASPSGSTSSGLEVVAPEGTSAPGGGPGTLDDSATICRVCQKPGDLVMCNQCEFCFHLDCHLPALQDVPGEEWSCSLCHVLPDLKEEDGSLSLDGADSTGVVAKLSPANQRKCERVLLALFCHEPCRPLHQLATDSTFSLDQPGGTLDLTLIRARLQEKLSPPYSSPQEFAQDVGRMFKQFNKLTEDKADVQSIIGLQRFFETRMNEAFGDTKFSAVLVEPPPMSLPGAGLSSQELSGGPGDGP
Method: as §3

[9] = test system: SP100; assay: DSF bromodomain selectivity panel; type: binding; conditions: 10 μM compound
Method: as §3

[10] = biological target: T7, BRDT(1) (Homo sapiens, UniProt Q58F21); assay: DSF bromodomain selectivity panel; type: binding; conditions: 10 μM compound
T7 construct: BRDT(1); purchased in-house (SGC Frankfurt recombinant bromodomain DSF panel)
Method: as §3

[11] = biological target: T8, BRD3 (2) (Homo sapiens, UniProt Q15059); assay: DSF bromodomain selectivity panel; type: binding; conditions: 10 μM compound
T8 construct: BRD3 (2); purchased in-house (SGC Frankfurt recombinant bromodomain DSF panel)
T8 sequence (Q15059 306-416 limits assumed): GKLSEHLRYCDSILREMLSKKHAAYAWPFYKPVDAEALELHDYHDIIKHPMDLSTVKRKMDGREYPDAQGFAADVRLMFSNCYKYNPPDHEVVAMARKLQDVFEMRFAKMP
Method: as §3

[12] = biological target: T9, TAF1 (1) (Homo sapiens, UniProt P21675); assay: DSF bromodomain selectivity panel; type: binding; conditions: 10 μM compound
T9 construct: TAF1 (1); purchased in-house (SGC Frankfurt recombinant bromodomain DSF panel)
T9 sequence (P21675 1397-1505 limits assumed): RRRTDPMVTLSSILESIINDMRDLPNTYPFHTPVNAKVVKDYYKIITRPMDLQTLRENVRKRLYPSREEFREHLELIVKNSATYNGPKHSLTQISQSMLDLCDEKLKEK
Method: as §3

[13] = biological target: T10, PCAFA (Homo sapiens, UniProt Q92831); assay: DSF bromodomain selectivity panel; type: binding; conditions: 10 μM compound
T10 construct: purchased in-house (SGC Frankfurt recombinant bromodomain DSF panel)
Method: as §3

[14] = biological target: T11, TAF1LA (1) (Homo sapiens, UniProt Q8IZX4); assay: DSF bromodomain selectivity panel; type: binding; conditions: 10 μM compound
T11 construct: TAF1LA (1); purchased in-house (SGC Frankfurt recombinant bromodomain DSF panel)
T11 sequence (Q8IZX4 1392-1522 limits assumed): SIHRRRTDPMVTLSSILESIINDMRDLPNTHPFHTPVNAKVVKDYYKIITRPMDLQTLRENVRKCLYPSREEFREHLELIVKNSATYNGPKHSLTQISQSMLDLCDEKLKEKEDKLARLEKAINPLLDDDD
Method: as §3

[15] = biological target: T12, BRD7 (Homo sapiens, UniProt Q9NPI1); assay: DSF bromodomain selectivity panel; type: binding; conditions: 10 μM compound
T12 construct: purchased in-house (SGC Frankfurt recombinant bromodomain DSF panel)
T12 sequence (Q9NPI1 whole entry): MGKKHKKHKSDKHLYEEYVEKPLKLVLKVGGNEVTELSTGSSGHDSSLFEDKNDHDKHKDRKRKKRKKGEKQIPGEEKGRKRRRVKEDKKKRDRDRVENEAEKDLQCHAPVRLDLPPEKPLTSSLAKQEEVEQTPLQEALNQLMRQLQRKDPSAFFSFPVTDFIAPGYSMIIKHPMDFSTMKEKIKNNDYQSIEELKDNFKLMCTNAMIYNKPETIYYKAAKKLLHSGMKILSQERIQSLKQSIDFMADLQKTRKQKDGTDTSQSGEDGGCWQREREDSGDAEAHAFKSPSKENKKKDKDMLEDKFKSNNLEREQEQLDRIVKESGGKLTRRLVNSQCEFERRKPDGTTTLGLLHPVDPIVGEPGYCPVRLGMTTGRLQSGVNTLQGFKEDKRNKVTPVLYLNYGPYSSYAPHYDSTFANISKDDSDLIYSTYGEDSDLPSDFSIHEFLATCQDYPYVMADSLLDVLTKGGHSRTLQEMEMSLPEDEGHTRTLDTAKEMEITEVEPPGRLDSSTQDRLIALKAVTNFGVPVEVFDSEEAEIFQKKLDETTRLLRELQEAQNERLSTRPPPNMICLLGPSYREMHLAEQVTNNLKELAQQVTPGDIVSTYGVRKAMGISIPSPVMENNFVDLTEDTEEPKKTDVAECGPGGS
Method: as §3

[16] = biological target: T13, TRIM24 (Homo sapiens, UniProt O15164); assay: DSF bromodomain selectivity panel; type: binding; conditions: 10 μM compound, construct containing tandem PHD-BD
T13 construct: purchased in-house (SGC Frankfurt recombinant bromodomain DSF panel)
Method: as §3

[17] = biological target: T14, BRD1 (Homo sapiens, UniProt O95696); assay: DSF bromodomain selectivity panel; type: binding; conditions: 10 μM compound
T14 construct: purchased in-house (SGC Frankfurt recombinant bromodomain DSF panel)
T14 sequence (O95696 whole entry): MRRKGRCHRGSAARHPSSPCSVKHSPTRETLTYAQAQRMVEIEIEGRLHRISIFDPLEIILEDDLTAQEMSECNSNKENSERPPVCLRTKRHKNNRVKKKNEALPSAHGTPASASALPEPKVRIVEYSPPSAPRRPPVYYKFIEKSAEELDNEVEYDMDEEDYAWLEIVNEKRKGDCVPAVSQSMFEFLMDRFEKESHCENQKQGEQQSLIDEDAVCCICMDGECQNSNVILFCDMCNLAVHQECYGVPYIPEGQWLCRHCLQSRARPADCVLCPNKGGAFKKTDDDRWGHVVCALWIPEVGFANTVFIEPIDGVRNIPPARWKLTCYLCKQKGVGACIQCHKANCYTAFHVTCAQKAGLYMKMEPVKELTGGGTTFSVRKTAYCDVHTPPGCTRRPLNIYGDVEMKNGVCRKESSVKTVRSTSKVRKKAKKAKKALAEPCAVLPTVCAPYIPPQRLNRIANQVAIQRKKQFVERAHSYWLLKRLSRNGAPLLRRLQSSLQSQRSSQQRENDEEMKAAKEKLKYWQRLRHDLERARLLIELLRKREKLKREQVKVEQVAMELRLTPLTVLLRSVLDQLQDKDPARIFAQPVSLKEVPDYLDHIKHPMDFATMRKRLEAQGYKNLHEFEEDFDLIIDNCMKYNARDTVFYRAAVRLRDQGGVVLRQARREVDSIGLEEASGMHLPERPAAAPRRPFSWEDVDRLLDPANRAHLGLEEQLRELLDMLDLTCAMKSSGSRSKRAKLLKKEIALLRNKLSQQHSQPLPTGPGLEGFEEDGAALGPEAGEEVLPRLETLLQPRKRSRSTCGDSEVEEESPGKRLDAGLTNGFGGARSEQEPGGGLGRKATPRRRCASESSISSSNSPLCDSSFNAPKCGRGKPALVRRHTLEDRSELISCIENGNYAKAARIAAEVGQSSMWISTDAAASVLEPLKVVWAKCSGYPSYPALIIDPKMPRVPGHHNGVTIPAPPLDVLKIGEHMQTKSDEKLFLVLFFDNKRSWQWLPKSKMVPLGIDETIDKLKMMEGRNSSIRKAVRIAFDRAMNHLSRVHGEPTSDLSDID
Method: as §3

[18] = biological target: T15, EP300A (Homo sapiens, UniProt Q09472); assay: DSF bromodomain selectivity panel; type: binding; conditions: 10 μM compound
T15 construct: purchased in-house (SGC Frankfurt recombinant bromodomain DSF panel)
Method: as §3

[19] = biological target: T16, PB1A(5) (Homo sapiens, UniProt Q86U86); assay: DSF bromodomain selectivity panel; type: binding; conditions: 10 μM compound
T16 construct: PB1A(5); purchased in-house (SGC Frankfurt recombinant bromodomain DSF panel)
T16 sequence (Q86U86 645-766 limits assumed): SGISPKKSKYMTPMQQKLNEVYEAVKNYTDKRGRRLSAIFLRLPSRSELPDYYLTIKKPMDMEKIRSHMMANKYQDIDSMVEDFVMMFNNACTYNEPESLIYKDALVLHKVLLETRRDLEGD
Method: as §3

[20] = biological target: T17, TAF1LA (2) (Homo sapiens, UniProt Q8IZX4); assay: DSF bromodomain selectivity panel; type: binding; conditions: 10 μM compound
T17 construct: TAF1LA (2); purchased in-house (SGC Frankfurt recombinant bromodomain DSF panel)
T17 sequence (Q8IZX4 1523-1654 limits assumed): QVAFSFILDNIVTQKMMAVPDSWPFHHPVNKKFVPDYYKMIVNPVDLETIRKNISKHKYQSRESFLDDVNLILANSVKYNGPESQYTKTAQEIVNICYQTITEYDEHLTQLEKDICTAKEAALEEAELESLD
Method: as §3

[21] = biological target: T18, BRPF1B (Homo sapiens, UniProt P55201); assay: DSF bromodomain selectivity panel; type: binding; conditions: 10 μM compound
T18 construct: purchased in-house (SGC Frankfurt recombinant bromodomain DSF panel)
T18 sequence (P55201 whole entry): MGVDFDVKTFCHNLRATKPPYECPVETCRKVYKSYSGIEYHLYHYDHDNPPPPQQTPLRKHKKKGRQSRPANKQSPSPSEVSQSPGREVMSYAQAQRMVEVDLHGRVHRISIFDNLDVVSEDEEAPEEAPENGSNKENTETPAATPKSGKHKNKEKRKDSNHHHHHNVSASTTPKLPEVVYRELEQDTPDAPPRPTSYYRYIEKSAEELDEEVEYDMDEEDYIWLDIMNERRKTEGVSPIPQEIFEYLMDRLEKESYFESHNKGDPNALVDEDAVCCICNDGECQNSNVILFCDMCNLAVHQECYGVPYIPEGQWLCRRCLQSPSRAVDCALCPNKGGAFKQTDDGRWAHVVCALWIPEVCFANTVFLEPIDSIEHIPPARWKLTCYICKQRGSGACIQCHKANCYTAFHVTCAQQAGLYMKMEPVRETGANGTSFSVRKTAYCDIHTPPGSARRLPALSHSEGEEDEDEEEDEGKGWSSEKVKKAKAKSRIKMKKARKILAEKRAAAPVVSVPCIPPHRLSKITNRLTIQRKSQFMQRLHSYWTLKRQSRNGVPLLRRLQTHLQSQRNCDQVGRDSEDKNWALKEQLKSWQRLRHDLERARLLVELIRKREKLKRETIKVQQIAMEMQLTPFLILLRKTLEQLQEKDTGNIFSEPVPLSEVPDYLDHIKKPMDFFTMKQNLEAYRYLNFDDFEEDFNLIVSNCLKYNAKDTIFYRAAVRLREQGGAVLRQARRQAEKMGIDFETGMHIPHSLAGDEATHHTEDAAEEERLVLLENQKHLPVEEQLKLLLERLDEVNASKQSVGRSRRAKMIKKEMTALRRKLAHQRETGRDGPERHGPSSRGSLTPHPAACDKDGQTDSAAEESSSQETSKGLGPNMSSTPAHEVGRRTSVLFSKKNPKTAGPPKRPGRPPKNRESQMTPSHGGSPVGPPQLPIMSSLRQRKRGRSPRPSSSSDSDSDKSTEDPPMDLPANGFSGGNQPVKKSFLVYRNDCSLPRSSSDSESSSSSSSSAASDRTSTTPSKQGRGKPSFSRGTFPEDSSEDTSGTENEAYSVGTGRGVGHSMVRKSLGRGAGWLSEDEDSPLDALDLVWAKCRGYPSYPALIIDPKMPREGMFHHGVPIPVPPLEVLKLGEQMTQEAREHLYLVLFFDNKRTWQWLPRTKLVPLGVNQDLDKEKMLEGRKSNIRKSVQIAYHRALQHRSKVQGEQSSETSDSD
Method: as §3

[22] = test system: TP63 mRNA in NMC HCC2429 cells; assay: Quantitative RT-PCR of oncogenic drivers; type: cell-based; conditions: HCC2429, 6 h, 1 μΜ compound
Method: (§4) Total RNA was extracted from cell culture using the Maxwell RSC simply RNA Cells Kit (Promega) according to the manufacturer’s protocol. cDNA was synthesized using PrimeScript Reverse Transcriptase (TakaRa) and amplified using homemade PCR master mix. The amplicon was detected by EvaGreen Dye using a LightCycler 480 instrument (Roche). PCR conditions were 5 min at 95 °C, followed by 45 cycles of 95 °C for 10 s, 59 °C for 10 s, and 72 °C for 20 s. The relative gene expression levels were normalized to GUSB and calculated using the 2^–ΔΔC^t method.

[23] = test system: MYC mRNA in NMC HCC2429 cells; assay: Quantitative RT-PCR of oncogenic drivers; type: cell-based; conditions: HCC2429, 6 h, 1 μΜ compound
Method: as §4

Row | Structure (SMILES) | IC50 [1] | IC50 [2] | Mean Tm TAF1 (2) [3] | Mean Tm BAZ2B [4] | Mean Tm BRPF3 [5] | Mean Tm TRIM33B [6] | Mean Tm PB1A(6) [7] | Mean Tm TRIM28 [8] | Mean Tm SP100 [9] | Mean Tm BRDT(1) [10] | Mean Tm BRD3 (2) [11] | Mean Tm TAF1 (1) [12] | Mean Tm PCAFA [13] | Mean Tm TAF1LA (1) [14] | Mean Tm BRD7 [15] | Mean Tm TRIM24 [16] | Mean Tm BRD1 [17] | Mean Tm EP300A [18] | Mean Tm PB1A(5) [19] | Mean Tm TAF1LA (2) [20] | further results
1 | Cn1cc(-c2ccc(C(=O)Nc3cc(-c4ccccc4)ccc3N)nc2)c2cc[nH]c2c1=O [NB512] | 0.42 ± 0.05 µM | 3.6 ± 0.4 µM |  |  |  |  |  |  |  |  |  |  |  |  |  |  |  |  |  |  | 
2 | Cn1cc(-c2ccc(C(=O)Nc3cc(-c4ccccc4)ccc3N)cc2)c2cc[nH]c2c1=O [NB503] | 0.63 ± 0.08 µM | 2.8 ± 0.2 µM | 1.7 ± 0.1 K | 1.4 ± 0.1 K | 1.2 ± 0.1 K | 0.5 ± 0.0 K | 1.3 ± 0.1 K | 0.0 ± 0.2 K | 0.4 ± 0.1 K | 3.3 ± 0.1 K | 4.6 ± 0.7 K | 1.0 ± 0.2 K | 1.9 ± 0.2 K | 0.6 ± 0.3 K | 1.1 ± 0.2 K | 0.7 ± 0.5 K | 1.1 ± 0.1 K | 1.0 ± 0.3 K | 1.1 ± 0.2 K | 1.2 ± 0.0 K | Mean Tm BRPF1B [21]: 0.8 ± 0.3 K; TP63 mRNA levels [22]: strongest effect; MYC mRNA levels [23]: strongest effect
3 | Cn1cc(-c2ccc(C(=O)Nc3ccccc3N)cc2)c2cc[nH]c2c1=O [NB462] | 0.4 ± 0.03 µM | 2.7 ± 0.3 µM | 1.3 ± 0.0 K | 0.5 ± 0.0 K | -0.5 ± 0.1 K | 0.4 ± 0.1 K | 0.3 ± 0.1 K | 0.6 ± 0.4 K | -0.2 ± 0.1 K | 3.0 ± 0.2 K | 6.1 ± 0.0 K | 0.4 ± 0.1 K | 0.1 ± 0.4 K | 0.3 ± 0.1 K | 5.6 ± 0.3 K | 0.6 ± 0.1 K | 0.2 ± 0.1 K | 2.0 ± 0.3 K | 0.0 ± 0.1 K | 1.7 ± 0.1 K | Mean Tm BRPF1B [21]: 0.8 ± 0.1 K
4 | Cn1cc(-c2ccc(C(=O)Nc3ccccc3N)nc2)c2cc[nH]c2c1=O [NB500] | 0.22 ± 0.02 µM | 3.2 ± 0.4 µM |  |  |  |  |  |  |  |  |  |  |  |  |  |  |  |  |  |  | TP63 mRNA levels [22]: strongest effect; MYC mRNA levels [23]: strongest effect
